Assay results from the CheMixHub viscosity set.
± gives the uncertainty stated by the source.

Test: xn = mol fraction of the nth substance listed

O=S1(=O)CCCC1 + CCCCOCCO
303.15 K, 101 kPa
Details	viscosity [mPa·s]
x1 = 0.0491	1.94 ± 0.022
x1 = 0.0999	1.87 ± 0.022
x1 = 0.2	2.002 ± 0.023
x1 = 0.2998	2.501 ± 0.029
x1 = 0.3503	2.882 ± 0.033
x1 = 0.3999	3.311 ± 0.038
x1 = 0.4495	3.777 ± 0.043
x1 = 0.4999	4.28 ± 0.049
x1 = 0.5997	5.339 ± 0.061
x1 = 0.7015	6.489 ± 0.073
x1 = 0.7991	7.639 ± 0.085
x1 = 0.8987	8.898 ± 0.099
x1 = 0.9504	9.535 ± 0.11

CCCCOCCOCCO + CCN(CC)CC
viscosity [mPa·s], 100 kPa
Details	298.15 K	303.15 K	308.15 K
x1 = 0.05083	0.4832 ± 0.15	0.4499 ± 0.15	0.4246 ± 0.15
x1 = 0.1	0.6109 ± 0.15	0.5597 ± 0.15	0.5234 ± 0.15
x1 = 0.15	0.7524 ± 0.15	0.6836 ± 0.15	0.637 ± 0.15
x1 = 0.2	0.9081 ± 0.15	0.8131 ± 0.15	0.7543 ± 0.15
x1 = 0.3	1.246 ± 0.15	1.108 ± 0.15	1.021 ± 0.15
x1 = 0.3999	1.641 ± 0.15	1.447 ± 0.15	1.324 ± 0.15
x1 = 0.5	2.105 ± 0.15	1.837 ± 0.15	1.669 ± 0.15
x1 = 0.5999	2.629 ± 0.15	2.278 ± 0.15	2.067 ± 0.15
x1 = 0.6995	3.213 ± 0.15	2.776 ± 0.15	2.496 ± 0.15
x1 = 0.8	3.822 ± 0.15	3.271 ± 0.15	2.93 ± 0.15
x1 = 0.8998	4.474 ± 0.15	3.817 ± 0.15	3.419 ± 0.15
x1 = 0.9499	4.793 ± 0.15	4.075 ± 0.15	3.631 ± 0.15

Nc1ccccc1Cl + ClC(Cl)(Cl)Cl
viscosity [mPa·s], 100 kPa
Details	x2 = 0.1011	x2 = 0.1916	x2 = 0.2901	x2 = 0.3811	x2 = 0.4923	x2 = 0.5989	x2 = 0.6911	x2 = 0.7741	x2 = 0.8897
298.15 K	3.882 ± 0.082	3.589 ± 0.076	3.268 ± 0.069	2.97 ± 0.063	2.604 ± 0.055	2.25 ± 0.047	1.942 ± 0.041	1.664 ± 0.035	1.273 ± 0.027
303.15 K	3.532 ± 0.075	3.269 ± 0.069	2.981 ± 0.063	2.713 ± 0.057	2.382 ± 0.05	2.063 ± 0.044	1.785 ± 0.038	1.533 ± 0.032	1.179 ± 0.025
308.15 K	3.158 ± 0.067	2.927 ± 0.062	2.675 ± 0.057	2.439 ± 0.052	2.149 ± 0.046	1.868 ± 0.04	1.622 ± 0.034	1.4 ± 0.03	1.086 ± 0.023
313.15 K	2.837 ± 0.06	2.634 ± 0.056	2.411 ± 0.051	2.203 ± 0.047	1.947 ± 0.041	1.699 ± 0.036	1.482 ± 0.031	1.284 ± 0.027	1.005 ± 0.021
318.15 K	2.566 ± 0.054	2.387 ± 0.051	2.189 ± 0.046	2.004 ± 0.042	1.776 ± 0.038	1.554 ± 0.033	1.361 ± 0.029	1.185 ± 0.025	0.934 ± 0.02

Cc1cccc(C)c1 + C1COCCO1
Details	viscosity [mPa·s]
298.15 K, 101 kPa, x2 = 0.7182	1.005 ± 0.021

C1CC[NH2+]C1.CCCCCCCC(=O)[O-] + CO
viscosity [mPa·s], 101 kPa
Details	x1 = 0.1021	x1 = 0.2025	x1 = 0.3023	x1 = 0.3896	x1 = 0.5185	x1 = 0.5972	x1 = 0.7086	x1 = 0.7895	x1 = 0.844
293.15 K	4.58 ± 0.92	7.4 ± 1.5	10.73 ± 2.1	14.46 ± 2.9	22.6 ± 4.5	28 ± 5.6	38.68 ± 7.8	47.37 ± 9.5	55.2 ± 11
298.15 K	3.6 ± 0.72	6.53 ± 1.3	10.37 ± 2.1	13.1 ± 2.6	19.44 ± 3.9	24.57 ± 4.9	33.84 ± 6.8	41.18 ± 8.3	48.18 ± 9.7
303.15 K	3.6 ± 0.72	6 ± 1.2	8.9 ± 1.8	10.82 ± 2.2	15.84 ± 3.2	20.9 ± 4.2	27.67 ± 5.6	34.45 ± 6.9	38.6 ± 7.8
308.15 K	4.08 ± 0.82	5.69 ± 1.1	8.64 ± 1.7	10.07 ± 2	15.33 ± 3.1	19.02 ± 3.8	24.21 ± 4.9	29.56 ± 6	33.63 ± 6.8
313.15 K	4 ± 0.8	5.4 ± 1.1	7.17 ± 1.4	9.15 ± 1.8	13.26 ± 2.7	15.69 ± 3.1	21.37 ± 4.3	25.39 ± 5.1	28.41 ± 5.7

Cc1cccc(C)c1 + CC(C)(C)O
308.15 K, 101 kPa
Details	viscosity [mPa·s]
x2 = 0.0642	0.542 ± 0.011
x2 = 0.1265	0.59 ± 0.012
x2 = 0.2068	0.633 ± 0.013
x2 = 0.3029	0.667 ± 0.014
x2 = 0.3766	0.72 ± 0.015
x2 = 0.4301	0.756 ± 0.016
x2 = 0.4992	0.793 ± 0.017
x2 = 0.5983	0.909 ± 0.019
x2 = 0.6924	1.013 ± 0.021
x2 = 0.7966	1.296 ± 0.027
x2 = 0.908	1.731 ± 0.036

NCCCO + CCCCCCn1cc[n+](C)c1.F[B-](F)(F)F
101 kPa
Details	viscosity [mPa·s]
303.15 K, x2 = 0.3217	34.55 ± 1.4
308.15 K, x2 = 0.4942	36.45 ± 1.5

O=C[C@H](O)[C@H](O)[C@H](O)CO + C[N+](C)(C)CCO.[Cl-]
100 kPa, x2 = 0.6
Details	viscosity [mPa·s]
313.2 K	575.5 ± 30
318.2 K	374.3 ± 19

Cc1ccc(O)cc1 + Cc1ccccc1
308.15 K, 101 kPa
Details	viscosity [mPa·s]
x1 = 0.0324	0.5202 ± 0.0047
x1 = 0.0983	0.5823 ± 0.0051
x1 = 0.2079	0.7295 ± 0.0062
x1 = 0.305	0.9088 ± 0.0075
x1 = 0.417	1.201 ± 0.0097
x1 = 0.58	1.867 ± 0.015
x1 = 0.6813	2.636 ± 0.02
x1 = 0.7299	3.2 ± 0.024
x1 = 0.8385	4.646 ± 0.035
x1 = 0.8532	5.08 ± 0.037
x1 = 0.9349	6.873 ± 0.047

CCCCCCCCCCCCCCCCCC(=O)O + CN1CCC[C@H]1c1cccnc1
viscosity [mPa·s], 101 kPa
Details	x2 = 0.3991	x2 = 0.4952	x2 = 0.6034	x2 = 0.6986	x2 = 0.7961	x2 = 0.8973
298.15 K	–	–	–	21.18 ± 0.24	14.22 ± 0.17	7.79 ± 0.096
323.15 K	26.04 ± 0.26	18.6 ± 0.2	12.3 ± 0.14	8.571 ± 0.11	6.045 ± 0.081	4.003 ± 0.053

C1CC[NH2+]C1.CCCCCCCC(=O)[O-] + O
viscosity [mPa·s], 101 kPa
Details	x1 = 0.1001	x1 = 0.1939	x1 = 0.3059	x1 = 0.3999	x1 = 0.5006	x1 = 0.56	x1 = 0.7293	x1 = 0.8443
293.15 K	19.1 ± 3.8	30.6 ± 6.1	44.2 ± 8.8	53 ± 11	58.7 ± 12	61.3 ± 12	67.6 ± 14	70.6 ± 14
298.15 K	17 ± 3.4	28.7 ± 5.8	38.7 ± 7.8	45.6 ± 9.1	50.2 ± 10	51.77 ± 10	57.23 ± 12	60.69 ± 12
303.15 K	15.36 ± 3.1	22.52 ± 4.5	32.46 ± 6.5	37.47 ± 7.5	40.91 ± 8.2	42.49 ± 8.5	46.05 ± 9.3	48.99 ± 9.9
308.15 K	13.5 ± 2.7	19.87 ± 4	28.64 ± 5.7	32.64 ± 6.5	35.5 ± 7.1	36.88 ± 7.4	39.52 ± 8	42.04 ± 8.5
313.15 K	11.56 ± 2.3	17.09 ± 3.4	24.55 ± 4.9	27.65 ± 5.5	29.82 ± 6	30.62 ± 6.2	32.72 ± 6.6	34.71 ± 7
